Where a name gives a salt, the structure may show the parent alone.
Legend:
[1] = biological target: T1, serotonin transporter (Rattus norvegicus, UniProt P31652); test: 3H-paroxetine displacement from rat frontal cortical membranes (serotonin transporter affinity); format: binding; conditions: for Ki: 3H-paroxetine, male rat frontal cortical membranes, read-out: 5-HT Transporter Affinity Ki
T1 construct: displace ^3H-paroxetine from male rat frontal cortical membranes; from tissue; host or cells: male rat frontal cortical membranes

[2] = biological target: T2, human 5HT1A receptors (Homo sapiens, UniProt P08908); test: [3H] 8-OH-DPAT displacement from 5HT1A receptor in stably transfected CHO cells; format: binding; conditions: CHO cells with human 5HT1A; for Ki: read-out: 5HT1A Receptor Affinity Ki
T2 construct: expressed in transfected cells; host or cells: CHO cells
T2 sequence (P08908 1-422): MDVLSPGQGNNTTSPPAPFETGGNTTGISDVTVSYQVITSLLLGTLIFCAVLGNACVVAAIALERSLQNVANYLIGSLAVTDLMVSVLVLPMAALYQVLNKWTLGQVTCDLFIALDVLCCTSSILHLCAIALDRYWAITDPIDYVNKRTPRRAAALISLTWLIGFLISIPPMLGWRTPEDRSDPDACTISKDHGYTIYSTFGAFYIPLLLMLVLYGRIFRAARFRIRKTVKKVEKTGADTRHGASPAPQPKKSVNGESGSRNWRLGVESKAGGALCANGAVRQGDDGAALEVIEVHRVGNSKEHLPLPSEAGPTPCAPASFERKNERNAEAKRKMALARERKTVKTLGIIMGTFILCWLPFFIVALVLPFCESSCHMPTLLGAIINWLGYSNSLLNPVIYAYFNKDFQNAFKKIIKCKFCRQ
Excerpt: High affinity for the serotonin 5HT1A receptor was established by testing the claimed compound's ability to displace [^3H] 8-OH-DPAT (dipropylamino-tetralin) from the 5HT1A serotonin receptor following a modification of the procedure of Hall et al., J. Neurochem. 44, 1685 (1985) which utilizes CHO cells stably transfected with human 5HT1A receptors.

[3] = biological target: T3, cloned human 5HT1A receptors (Homo sapiens, UniProt P08908); test: 35S-GTPγS binding assay, 5HT1A antagonist activity; format: biochemical; conditions: for 5HT1A Function Imax: maximum inhibitory effect, vs 8-OH-DPAT, unit assumed; for IC50: reversal of 8-OH-DPAT (antagonist), read-out: 5HT1A Function IC50; for 5HT1A Function Emax / EC50: increase in binding (agonist); for EC50: read-out: 5HT1A Function EC50
T3 construct: expressed in transfected cells
T3 sequence (P08908 1-422): T2 sequence (P08908 1-422)
Experimental: Antagonist activity at 5HT1A receptors was established by using a ^35S-GTPγS binding assay similar to that used by Lazareno and Birdsall (Br. J. Pharmacol. 109:1120, 1993), in which the test compound's ability to affect the binding of ^35S-GTPγS to membranes containing cloned human 5HT1A receptors was determined. Agonists produce an increase in binding whereas antagonists produce no increase but rather reverse the effects of the standard agonist 8-OH-DPAT. The test compound's maximum inhibitory effect is represented as the Imax, while its potency is defined by the IC50.

T1 sequence (P31652 whole entry): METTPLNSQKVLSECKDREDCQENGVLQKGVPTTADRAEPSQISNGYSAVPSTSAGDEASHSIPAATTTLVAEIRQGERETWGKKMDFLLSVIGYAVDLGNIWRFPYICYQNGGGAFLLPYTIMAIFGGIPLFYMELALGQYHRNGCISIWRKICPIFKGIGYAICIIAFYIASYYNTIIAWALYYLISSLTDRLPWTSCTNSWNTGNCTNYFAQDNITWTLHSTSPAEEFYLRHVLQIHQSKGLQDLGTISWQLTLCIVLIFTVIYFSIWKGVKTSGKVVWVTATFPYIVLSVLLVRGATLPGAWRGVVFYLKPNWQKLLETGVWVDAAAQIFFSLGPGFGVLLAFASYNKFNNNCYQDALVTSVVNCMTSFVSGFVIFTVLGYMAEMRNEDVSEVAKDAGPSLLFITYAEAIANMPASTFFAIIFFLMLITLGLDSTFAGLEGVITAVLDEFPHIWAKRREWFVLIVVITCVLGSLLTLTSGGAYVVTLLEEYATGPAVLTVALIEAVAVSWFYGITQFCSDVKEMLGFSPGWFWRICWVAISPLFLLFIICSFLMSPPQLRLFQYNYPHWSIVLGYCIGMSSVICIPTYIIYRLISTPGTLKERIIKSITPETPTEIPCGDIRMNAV

Structure (SMILES)	melting point	Ki [1] [nM]	Ki [2] [nM]	5HT1A Function Imax [3] [%]	IC50 [3] [nM]	other results
Cc1ccc2c3c(ccc2n1)OC[C@H](CN1CCN(c2ccc(Cl)c(Cl)c2)CC1)O3 (as salt: fumarate) [Example 3, (2S)-2-{[4-(3,4-dichlorophenyl)piperazin-1-yl]methyl}-8-methyl-2,3-dihydro[1,4]dioxine[2,3-f]quinoline]	140 to 144 °C					
Cc1ccc2c3c(ccc2n1)OC[C@H](CN1CCN(c2cccc4c2OCCO4)CC1)O3 (as salt: fumarate) [Example 7, (2S)-2-{[4-(dihydrobenzo[1,4]dioxin-5-yl)piperazin-1-yl]methyl}-8-methyl-2,3-dihydro[1,4]dioxino[2,3-f]quinoline]	154 to 155 °C					
Cc1ccc2c3c(ccc2n1)OC[C@H](CN1CCN(c2ccc4ccccc4n2)CC1)O3 (as salt: hydrochloride) [Example 12, (2S)-8-methyl-2-[(4-quinolin-2-ylpiprazin-1-yl)methyl]-2,3-dihydro[1,4]dioxino[2,3-f]quinoline]	237 to 243 °C					
Cc1ccc2c3c(ccc2n1)OC[C@H](CN1CCN(c2ccc4cc([N+](=O)[O-])ccc4n2)CC1)O3 (as salt: salt) [Example 13]	200 °C (dec.)					
Cc1ccc2c3c(ccc2n1)OC[C@H](CN1CCN(c2cccc(Cl)c2)CC1)O3 [Example 1, (2S)-2-{[4-(3-chlorophenyl)piperazin-1-yl]methyl}-8-methyl-2,3-dihydro[1,4]dioxino[2,3-f]quinoline]	110 to 112 °C	15.7	15.9	100	4560	
Cc1ccc2c3c(ccc2n1)OC[C@H](CN1CCN(c2ccc(Cl)cc2)CC1)O3 [Example 2, (2S)-2-{[4-(4-chlorophenyl)piperazin-1-yl]methyl}-8-methyl-2,3-dihydro[1,4]dioxino[2,3-f]quinoline]		565	22.9	26	632	
Cc1ccc2c3c(ccc2n1)OC[C@H](CN1CCN(c2ccc(Cl)c(Cl)c2)CC1)O3 [Example 3, (2S)-2-{[4-(3,4-dichlorophenyl)piperazin-1-yl]methyl}-8-methyl-2,3-dihydro[1,4]dioxine[2,3-f]quinoline]		76	1050			
Cc1ccc2c3c(ccc2n1)OC[C@H](CN1CCN(c2cccc4c2OCCO4)CC1)O3 [Example 7, (2S)-2-{[4-(dihydrobenzo[1,4]dioxin-5-yl)piperazin-1-yl]methyl}-8-methyl-2,3-dihydro[1,4]dioxino[2,3-f]quinoline]		1.2			557	5HT1A Receptor Affinity, % @ 1 μM ([2]; @ 1 μM): 91% @ 1 μM
Cc1ccc2c3c(ccc2n1)OC[C@H](CN1CCN(c2ccc4ccccc4n2)CC1)O3 [Example 12, (2S)-8-methyl-2-[(4-quinolin-2-ylpiprazin-1-yl)methyl]-2,3-dihydro[1,4]dioxino[2,3-f]quinoline]		48	47.3	100	3000	
Cc1ccc2c3c(ccc2n1)OC[C@H](CN1CCN(c2ccc4cc([N+](=O)[O-])ccc4n2)CC1)O3 [Example 13]		0.25	20	70	326	
Cc1ccc2c3c(ccc2n1)OC[C@H](CN1CCN(c2ccc4cc(Cl)ccc4n2)CC1)O3 [Example 14]		0.65	214	58	74.7	
Cc1ccc2c3c(ccc2n1)OC[C@H](CN1CCN(c2ccc4cc(C#N)ccc4n2)CC1)O3 [Example 15, 2-(4-{[(2S)-8-methyl-2,3-dihydro[1,4]dioxino[2,3-f]quinolin-2-yl]methyl}piperazin-1-yl}quinoline-6-carbonitrile]		13.5	3.7		82.5	
COc1cccc2c(N3CCN(C[C@H]4COc5ccc6nc(C)ccc6c5O4)CC3)coc12 [Example 16, (2S)-2-{[4-(7-methoxy-1-benzofuran-3-yl)-1-piperazinyl]methyl}-8-methyl-2,3-dihydro[1,4]dioxino[2,3-f]quinoline]	56 °C	266	28.5			
Cc1ccc2c3c(ccc2n1)OC[C@H](CN1CCN(c2coc4ccc(F)cc24)CC1)O3 [Example 17, (2S)-2-{[4-(5-fluoro-1-benzofuran-3-yl)-1-piperazinyl]methyl}-8-methyl-2,3-dihydro[1,4]dioxino[2,3-f]quinoline]		74	718			
Cc1ccc2c3c(ccc2n1)OC[C@H](CN1CCN(c2coc4ccccc24)CC1)O3 [Example 18, (2S)-2-{[4-(1-benzofuran-3-yl)-1-piperazinyl]methyl}-8-methyl-2,3-dihydro[1,4]dioxino[2,3-f]quinoline]		16	40.3			
Cc1ccc2c3c(ccc2n1)OC[C@H](CN1CCN(c2ccc4cc(C#N)ccc4n2)C[C@H]1C)O3 [Example 20]		688	2.85	92	82.8	
Cc1ccc2c3c(ccc2n1)OC[C@H](CN1CCN(c2ccc4ccccc4c2)CC1)O3 [Example 22, (2S)-8-methyl-2-{[4-(2-naphthyl)piperazin-1-yl]methyl}-2,3-dihydro[1,4]dioxino[2,3-f]quinoline]		19.8	53.2	76	4540	
Cc1ccc2c3c(ccc2n1)OC[C@H](CN1CCN(c2ccc4cc(C(N)=O)ccc4n2)CC1)O3 [Example 23]			7.21	71	129	5-HT Transporter Affinity, % @ 1 μM [1]: 56% @ 1 μM
N#Cc1ccc2nc(N3CCN(C[C@H]4COc5ccc6ncccc6c5O4)CC3)ccc2c1 [Example 24, (2S)-2-[4-(2,3-Dihydro-[1,4]dioxino[2,3-f]quinolin-2-ylmethyl)-piperazin-1-yl]-quinoline-6-carbonitrile]		310	7.27	58	57	
CCc1ccc2c3c(ccc2n1)OC[C@H](CN1CCN(c2ccc4cc(C#N)ccc4n2)CC1)O3 [Example 25, (2S)-2-[4-(8-Ethyl-2,3-dihydro-[1,4]dioxino[2,3-f]quinolin-2-ylmethyl)-piperazin-1-yl]-quinoline-6-carbonitrile]		67	4.74			5HT1A Function Emax [3]: 67; EC50 [3]: 1140 nM
Cc1nc2ccc3c(c2o1)O[C@@H](CN1CCN(c2ccc4cc(C#N)ccc4n2)CC1)CO3 [Example 26, (2S)-2-[4-(2-Methyl-7,8-dihydro-1,6,9-trioxa-3-aza-cyclopenta[a]naphthalen-8-ylmethyl)-piperazin-1-yl]-quinoline-6-carbonitrile]		407	25.1			5HT1A Function Emax [3]: 64; EC50 [3]: 700 nM
Cc1ccc2c3c(ccc2n1)OC[C@H](CN1CCNCC1)O3 [Example 29, 8-Methyl-2-piperazin-1-ylmethyl-2,3-dihydro-[1,4]dioxino[2,3-f]quinoline]		200	1.26	100	1320	
COc1ccc2nc(N3CCN(C[C@H]4COc5ccc6nc(C)ccc6c5O4)CC3)ccc2c1 [Example 30, (2S)-2-{[4-(6-methoxyquinolin-2-yl)piperazin-1-yl]methyl]-8-methyl-2,3-dihydro[1,4]dioxino[2,3-f]quinoline]	158 to 160 °C					
COc1ccc2nc(N3CCCN(C[C@H]4COc5ccc6nc(C)ccc6c5O4)CC3)ccc2c1 [Example 33, (2S)-2-{[4-(6-methoxyquinolin-2-yl)-1,4-diazepan-1-yl]methyl]-8-methyl-2,3-dihydro[1,4]dioxino[2,3-f]quinoline]		7.3	1.75	92	316	
Cc1ccc2c3c(ccc2n1)OC[C@H](CN1CCCN(c2ccc4cc(C#N)ccc4n2)CC1)O3 [Example 34, 2-(4-{[(2S)-8-Methyl-2,3-dihydro[1,4]dioxino[2,3-f]quinolin-2-yl]methyl}-1,4-diazepan-1-yl)quinoline-6-carbonitrile]	80 to 85 °C	1.09	2.04			
